We go through 1 substance from US20150093333A1, “COMPOSITIONS, METHODS AND USES FOR PEPTIDES IN DIAGNOSIS, PROGRESSION AND TREATMENT OF CANCERS” (THE REGENTS OF THE UNIVERSITY OF COLORADO, body corporate, priority 2003, published 2015).

Where two headings read alike, the source gives them in different places. Some results are limits rather than exact numbers.

One assay relates to exosomes (Ex). In words: Fluorescence enhancement of BK derived peptides with exosomes from rat blood plasma. It is filed as binding. The settings on record: Ex treated peptide vs untreated. The source says:
In support of the observations with synthetic vesicles to translate to naturally-occurring extracellular vesicles, exosomes (Ex) purified from blood plasma of rats underwent inescapable tailshock stress as an acceptable model of exosome release. Ex have diameters of 40-100 nm, therefore providing a good biological model for testing the curvature-sensing peptides. […] The total number of Ex in the sample was counted by nanoparticle tracking analysis to ensure that is in the same order of magnitude as the 500 μM lipids in the synthetic models.

In a further assay the target is lipid vesicles. In words: Fluorescence anisotropy titration of BK derived peptides with lipid vesicles. As to conditions: read-out: Dissociation constant (Kd). It is filed as binding. The method, then:
In another method, synthetic lipid vesicles of various sizes were prepared to model different membrane curvatures for testing interactions. Three compositions of vesicles were designed to closely resemble natural biological membranes named lipid model (LM) 1, 2, and 3. These vesicles were prepared by extrusion under inert, pressure-controlled method through polycarbonate membranes with pore sizes of 400, 80, and 30 nm to cover a wide range of curvatures. Since curvature is defined as the inverse of radius, the smallest size represents vesicles with the highest curvature. […] These vesicles were further characterized by transmission electron microscopy (TEM) to verify the sizes found by DLS.
In other exemplary methods, binding strength of the interactions were assessed. Fluorescence anisotropy (FA) assay was adopted to measure the binding constants. The peptide partitions between the hydrophobic lipid bilayer and the aqueous solvent and the dissociation constant (Kd) calculated as the reciprocal of the molar partition coefficient. A constant concentration of peptide was titrated with increasing concentration of lipid vesicles and the FA due to the change in the rotational time of the small peptide when it binds to the relatively bigger lipid vesicles was measured and plotted versus the total lipid concentration. […] Fluorescence anisotropy titration was performed to obtain the Kd values. Lower values indicate stronger binding. LM=liposome model. [Peptide]=1 μM; [Lipid titrant]=2 mM.

Regarding “monomeric Bradykinin derivative: GRPPGFSPFR with ε-azidolysine and NBD-X fluorophore at the N-terminus [Peptide 1]”, in the assay on exosomes (Ex), the fluorescence intensity was 3.09±0.08 RFU. The Kd was 996 ± 230 µM on lipid vesicles (LM 1 V58); 940 ± 160 µM at lipid vesicles (LM 1 V116); 7.14 µM on lipid vesicles (LM 1 V454); 585 ± 62 µM at lipid vesicles (LM 2 V116); more than 1000 µM at lipid vesicles (LM 2 V454); 488 ± 72 µM at lipid vesicles (LM 2 V). Also, the figures for the Kd on lipid vesicles (LM 3 V58), on lipid vesicles (LM 3 V116) and at lipid vesicles (LM 3 V454) were 407 ± 56 µM, 893 ± 101 µM and 902 ± 141 µM, respectively.

By Kd is commonly meant the free concentration of one partner at which half of the binding sites on the other are occupied at equilibrium, for simple one-to-one binding.
